This note sets out measurements from patent US20250093263A1, “FRET-BASED ASSAYS” (The General Hospital Corporation, priority 2021, published 2025).

Experiment [1] has as its target HDAC1-HaloTag in HEK293T cells (Homo sapiens, UniProt Q13547). Kind of experiment: Cellular TR-FRET target engagement assay, HDAC1-HaloTag in HEK293T cells. The following applies: HEK-293T, read-out: Cellular TR-FRET assay SAHA-NCT 1 μM EC50 column: % @ 100. The class given is cell-based.
Description: Separately, stock solutions of plasmid DNA (pFC14A-HDAC1-HaloTag; 16 μg/mL) and PEI-MAX (48 μg/mL) were prepared in PBS such that the final volume of each stock solution was 1:20 of the volume of suspension cells in culture media (1:3 w/w DNA:PEI-MAX). The solutions were thoroughly mixed, then the DNA solution was added slowly to the PEI solution and the resulting transfection cocktail (1:10 volume of suspension) was incubated for 20 min at room temperature. The transfection cocktail was added to the cell suspension (final concentrations: 0.8 μg/mL DNA, 2.4 μg/mL PEI-MAX, 350,000 cells/mL) and the 12 mL suspension was added to a 10 cm dish. Cells were grown for 24 h at 37° C. and 5% CO2.
After, media was aspirated and cells were quickly washed with 12 mL phenol red-free DMEM+10% FBS, followed by one 30 min wash at 37° C. and 5% CO2. Cells were washed with PBS, trypsinized, counted, and pelleted.
The target in the next experiment is T1, BRD4(BD2) (Homo sapiens, UniProt O60885).
T1 construct: validated for its applicability with individual recombinant bromodomains BRD4(BD1) and BRD4(BD2); purchased Epicypher, Inc 15-0013
Kind of experiment: TR-FRET saturation binding of JQ1-FITC, BRD4(BD2). The note with it: 0.5 nM GST-BRD4(BD2), 2 nM CoraFluor-1-labeled anti-GST VHH; read-out: KD,app BRD4(BD2). How it is done: (§1) TR-FRET measurements: unless otherwise noted, experiments were performed in white, 384-well microtiter plates (Corning 3572) in 30 μL assay volume. […] The 490/10 and 520/10 emission channels were acquired with a 50% mirror and a dichroic 510 mirror, respectively, using independently optimized detector gain settings unless specified otherwise. The TR-FRET ratio was taken as the 520/490 nm intensity ratio on a per-well basis.
(§2) Determination of apparent equilibrium dissociation constant (KD,app) of JQ1-FITC toward individual recombinant bromodomains and endogenous BRD4 in MCF7 lysate: recombinant BRD4(BD1) and BRD4(BD2) were purchased from BPS Biosciences, Inc and Epicypher, Inc (GST-BRD4(BD1), 31040; GST-BRD4(BD2), 15-0013, respectively). Recombinant bromodomains were diluted to 0.5 nM in assay buffer (25 mM HEPES, 150 mM NaCl, 0.5 mg/mL BSA, 0.005% TWEEN-20, pH 7.5) with 2 nM CoraFluor-1-labeled anti-GST VHH, then JQ1-FITC was added in serial dilution (1:1.6 titration, 15-point, cmax=100 nM) using a D300 digital dispenser (Hewlett-Packard) and allowed to equilibrate for 2 h at room temperature before TR-FRET measurements were taken. Nonspecific signal was determined with 50 μM JQ1-Acid, and data were fitted to a One Site—Specific Binding model in Prism 9.

A further experiment concerns the target T2, BRD4(BD1) (Homo sapiens, UniProt O60885).
T2 construct: validated for its applicability with individual recombinant bromodomains BRD4(BD1) and BRD4(BD2); purchased BPS Biosciences, Inc 31040
Kind of experiment: TR-FRET saturation binding of JQ1-FITC, BRD4(BD1). The note with it: 0.5 nM GST-BRD4(BD1), 2 nM CoraFluor-1-labeled anti-GST VHH; read-out: KD,app BRD4(BD1). How it is done:
as §1, §2

For experiment [2], the system named is HsmPheRS (human mitochondrial PheRS). Kind of experiment: TR-FRET titration of tracer MAT588, HsmPheRS. The class given is binding. For orientation: In TR-FRET formats the signal depends on donor and acceptor labels being close together.
For experiment [3], the target named is T3, HsmPheRS (human mitochondrial PheRS) (Homo sapiens, UniProt O95363).
T3 construct: rows headed: HsmPheRS KD; other: absence of substrates, titrating; human mitochondrial PheRS (HisHalo-HsmPheRS); fused on or other part: C-terminal HaloTag, HRV-3C site and His9 tag; the CoraFluor-1 terbium donor is attached through the HaloTag or by direct Pfp labelling
T3 sequence (O95363 42-357 limits assumed): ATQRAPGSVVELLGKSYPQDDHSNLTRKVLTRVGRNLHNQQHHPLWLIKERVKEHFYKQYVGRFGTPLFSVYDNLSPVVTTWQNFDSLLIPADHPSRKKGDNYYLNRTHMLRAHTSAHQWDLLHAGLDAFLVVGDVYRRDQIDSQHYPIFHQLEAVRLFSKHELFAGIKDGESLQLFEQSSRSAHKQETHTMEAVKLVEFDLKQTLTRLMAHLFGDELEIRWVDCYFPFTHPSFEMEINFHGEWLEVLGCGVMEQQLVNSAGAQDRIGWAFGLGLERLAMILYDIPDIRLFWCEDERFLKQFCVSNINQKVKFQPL
Kind of experiment: TR-FRET titration of tracer MAT588, HsmPheRS. The note with it: absence of substrates, titrating. It counts as binding.

Experiment [4] has as its target T4, HscPheRS (human cytoplasmic PheRS) (Homo sapiens, UniProt Q9Y285).
T4 construct: HisHalo-HscPheRS; alpha subunit residues 1-508; beta subunit residues 1-589; made in house; host or cells: E. coli
T4 sequence (Q9Y285 1-508): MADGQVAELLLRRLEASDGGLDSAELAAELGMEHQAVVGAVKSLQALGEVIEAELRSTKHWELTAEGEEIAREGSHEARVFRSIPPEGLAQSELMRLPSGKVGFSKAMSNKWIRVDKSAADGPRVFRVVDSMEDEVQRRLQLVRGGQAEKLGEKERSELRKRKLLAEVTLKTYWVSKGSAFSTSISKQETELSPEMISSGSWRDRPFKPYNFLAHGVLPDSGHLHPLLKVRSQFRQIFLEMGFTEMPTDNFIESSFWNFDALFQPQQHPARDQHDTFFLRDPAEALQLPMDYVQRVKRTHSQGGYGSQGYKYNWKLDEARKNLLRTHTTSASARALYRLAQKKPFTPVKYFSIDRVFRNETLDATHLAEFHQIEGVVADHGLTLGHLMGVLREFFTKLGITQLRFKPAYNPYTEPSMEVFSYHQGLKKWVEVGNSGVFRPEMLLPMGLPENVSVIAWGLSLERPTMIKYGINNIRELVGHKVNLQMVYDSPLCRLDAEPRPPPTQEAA
T4 sequence (Q9NSD9 1-589 partner): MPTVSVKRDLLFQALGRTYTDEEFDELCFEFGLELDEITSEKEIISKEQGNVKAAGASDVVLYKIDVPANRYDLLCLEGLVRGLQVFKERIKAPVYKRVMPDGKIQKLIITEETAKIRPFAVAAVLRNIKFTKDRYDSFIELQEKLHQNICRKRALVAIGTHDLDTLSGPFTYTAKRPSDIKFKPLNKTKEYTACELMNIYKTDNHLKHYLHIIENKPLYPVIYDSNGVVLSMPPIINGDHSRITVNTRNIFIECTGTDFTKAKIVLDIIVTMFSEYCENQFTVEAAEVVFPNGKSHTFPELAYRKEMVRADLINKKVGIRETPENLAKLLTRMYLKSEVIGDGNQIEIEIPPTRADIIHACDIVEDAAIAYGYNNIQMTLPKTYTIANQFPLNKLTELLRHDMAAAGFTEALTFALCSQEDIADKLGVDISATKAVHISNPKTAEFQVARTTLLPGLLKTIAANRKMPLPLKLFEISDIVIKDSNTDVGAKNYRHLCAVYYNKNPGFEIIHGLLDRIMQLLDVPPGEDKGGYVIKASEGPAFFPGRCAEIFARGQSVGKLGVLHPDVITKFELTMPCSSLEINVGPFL
Kind of experiment: TR-FRET titration of tracer MAT588, HscPheRS. The class given is binding. The following applies: absence of substrates.

Experiment [5] concerns the target T5, HDAC1 Recombinant (Homo sapiens, UniProt Q13547).
T5 construct: purchased BPS Bioscience Inc 50051
Briefly: HDAC1 enzymatic activity assay with recombinant protein. The class given is biochemical. The note with it: 5 nM HDAC1, 18 μM MAZ1600 substrate (3 × KM), 3 h incubation.
Description: 7-Amino-4-methyl coumarin fluorescence was measured on a Tecan SPARK plate reader: 350/20 nm excitation, 460/10 nm emission.

The target in a further experiment is HDAC1-HaloTag (Homo sapiens, UniProt Q13547).
Experiment [6] deals with T5, HDAC1 Recombinant. Briefly: TR-FRET assay with recombinant HDAC1. The class given is binding. The note with it: 5 nM HDAC1, 2.5 nM Tb-Anti-6xHis IgG, 20 nM SAHA-NCT, 3 h.

Where only a bound is given, the exact number is not on record here.

T5 sequence (Q13547 whole entry): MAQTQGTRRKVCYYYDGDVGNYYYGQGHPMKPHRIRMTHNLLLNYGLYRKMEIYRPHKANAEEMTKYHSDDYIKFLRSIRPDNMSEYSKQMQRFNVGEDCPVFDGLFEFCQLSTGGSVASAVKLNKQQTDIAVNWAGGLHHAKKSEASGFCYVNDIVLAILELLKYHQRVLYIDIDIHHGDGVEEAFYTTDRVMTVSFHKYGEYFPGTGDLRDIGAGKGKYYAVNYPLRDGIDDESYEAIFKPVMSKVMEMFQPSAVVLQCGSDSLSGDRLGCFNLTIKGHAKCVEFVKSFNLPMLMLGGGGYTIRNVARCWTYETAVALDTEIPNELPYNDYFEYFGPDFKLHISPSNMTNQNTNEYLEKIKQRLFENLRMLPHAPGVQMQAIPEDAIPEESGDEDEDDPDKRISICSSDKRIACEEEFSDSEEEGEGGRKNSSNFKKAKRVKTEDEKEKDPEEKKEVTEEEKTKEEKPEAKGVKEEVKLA
Chain of HDAC1-HaloTag in HEK293T cells (Q13547 whole entry): as above
Chain of HDAC1-HaloTag (Q13547 whole entry): as above

Consider `CC(=O)Nc1ccc(C(=O)Nc2ccccc2N)cc1` [CI-994], for which, in experiment [1], the inhibition at 100 µM was less than 5%.

Consider `Cc1sc2c(c1C)C(c1ccc(Cl)cc1)=NC(CC(=O)NCCCOCCOCCOCCCNC(=S)Nc1ccc(-c3c4ccc(=O)cc-4oc4cc(O)ccc34)c(C(=O)O)c1)c1nnc(C)n1-2` (stereo not shown) [JQ1-FITC, 5-(3-(1-(4-(4-chlorophenyl)-2,3,9-trimethyl-6H-thieno[3,2-f][1,2,4]triazolo[4,3-a][1,4]diazepin-6-yl)-2-oxo-7,10,13-trioxa-3-azahexadecan-16-y)thioureido)-2-(6-hydroxy-3-oxo-3H-xanthen-9-yl)benzoic acid], for which the figures for the Kd on BRD4(BD2) and on BRD4(BD1) were 5.8 ± 1.5 nM and 6.5 ± 1.1 nM, respectively.

On to `Nc1ncnc2c1ncn2[C@@H]1O[C@H](CN(CCCCCCOCCOCCNC(=O)c2ccc(C(=O)O)c(-c3c4ccc(=O)cc-4oc4cc(O)ccc34)c2)S(=O)(=O)NC(=O)[C@@H](N)Cc2ccccc2)[C@@H](O)[C@H]1O` [MAT588, 4-((2-(2-((6-((N-(L-phenylalanyl)sulfamoyl)(((2R,3S,4R,5R)-5-(6-amino-9H-purin-9-yl)-3,4-dihydroxytetrahydrofuran-2-yl)methyl)amino)hexyl)oxy)ethoxy)ethyl)carbamoyl)-2-(6-hydroxy-3-oxo-3H-xanthen-9-yl)benzoic acid], for which the “selectivity for HsmPheRS over HscPheRS” value in [2] is reported as > 1,000 fold. Further, the results for the Kd in [3] and in experiment [4] were less than 10 nM and more than 10000 nM, respectively.

One may read the IC50 as the concentration at which inhibition is half-maximal. Take `O=C(CCCCCCC(=O)Nc1ccc(CNC(=O)c2ccc(C(=O)O)c(C3=c4cc5c6c(c4Oc4c3cc3c7c4CCCN7CCCC3)CCC[N+]=6CCCC5)c2)cc1)NO` [SAHA-NCT]: at HDAC1 Recombinant [5], the IC50 amounted to 8 nM. For the same compound, the Kd on HDAC1 Recombinant [5] was found to be 2 nM; on HDAC1-HaloTag, 9 nM; on HDAC1 Recombinant [6], 9 nM.
